One data set deals with S. aureus ATCC 25923. Nature of the data set: microbe, parasite or virus in culture. Conditions: S. aureus ATCC 25923, CLSI procedure, triplicate, read-out: MIC. It counts as cell-based, Staphylococcus aureus. How it is done: (§1) The minimal inhibitory concentrations (MICs) assay was performed according to the CLSI procedures with the final peptide concentrations of 256, 128, 64, 32, 16, 8, 4, 2, 1, and 0.5 μg/mL, respectively. All tests were conducted in triplicate.

A further data set has as its system S. aureus CVCC 546. Nature of the data set: microbe, parasite or virus in culture. It counts as cell-based, Staphylococcus aureus. Conditions: S. aureus CVCC 546, CLSI procedure, triplicate, read-out: MIC. As for the experimental part:
as §1

The next data set has as its system S. aureus E48. Nature of the data set: microbe, parasite or virus in culture. The class given is cell-based, Staphylococcus aureus. The note with it: S. aureus E48, CLSI procedure, triplicate, read-out: MIC. As for the experimental part: as §1
Data set [1] concerns S. epidermidis ATCC 12228. As to the kind of experiment: microbe, parasite or virus in culture. The class given is cell-based, Staphylococcus epidermidis. The note with it: S. epidermidis ATCC 12228, CLSI procedure, triplicate, read-out: MIC. As for the experimental part:
as §1

The test system of data set [2] is Escherichia coli ATCC 25922. As to the kind of experiment: microbe, parasite or virus in culture. The class given is cell-based. The note with it: Escherichia coli ATCC 25922, CLSI procedure, triplicate, read-out: MIC. As for the experimental part:
as §1

Data set [3] relates to Staphylococcus aureus ATCC 43300. Nature of the data set: microbe, parasite or virus in culture. The class given is cell-based. Conditions: S. aureus ATCC 43300, CLSI procedure, triplicate, read-out: MIC. As for the experimental part: as §1
Data set [4] relates to S. aureus ATCC 43300. Nature of the data set: microbe, parasite or virus in culture. It counts as cell-based, Staphylococcus aureus. Conditions: S. aureus ATCC 43300; for MIC: Staphylococcus aureus, ATCC43300, read-out: MICa (MIC of drug alone). As for the experimental part:
The effects of combination were evaluated by calculating the FICI. FICI ≤ 0.5 was defined as synergy, 0.5 < FICI ≤ 1 was defined as additivity, 1 < FICI ≤ 4 was defined as indifference, and FICI > 4 was defined as antagonism.

Data set [5] concerns S. aureus ATCC 43300. As to the kind of experiment: Bactericidal kinetics (time-killing curves). The class given is cell-based, Staphylococcus aureus. The note with it: FNZ 1×, 2×, 4× MIC; ampicillin 2× MIC; S. aureus ATCC 43300. How it is done: The S. aureus ATCC 43300 in logarithmic growth stage was diluted to a final concentration of 10^6 CFU/mL. […] Samples were taken at 0, 0.5, 1, 2, 4, 6, 8, 10, 20, and 24 h, serially diluted, and visible colonies were counted on MHA plates.

In data set [6] the test system is Pseudomonas aeruginosa CICC 20625. As to the kind of experiment: Minimal inhibitory concentration (MIC). The class given is cell-based. The note with it: CLSI procedure, triplicate. How it is done:
as §1

For data set [7], the system named is Salmonella enterica ATCC 13076. Nature of the data set: Minimal inhibitory concentration (MIC). The class given is cell-based. The note with it: CLSI procedure, triplicate. As for the experimental part: as §1
The subject of data set [8] is G+ bacteria (S. aureus, S. hyicus, S. agalactiae, S. epidermidis). As to the kind of experiment: MIC, summary over Gram-positive bacteria. It counts as cell-based. Conditions: range over S. aureus. How it is done:
as §1

Data set [9] deals with Gram-negative bacteria (E. coli, S. enterica, P. aeruginosa). As to the kind of experiment: MIC, summary over Gram-negative bacteria. The class given is cell-based. How it is done:
as §1

For the next data set, the system named is RAW264.7 cells. As to the kind of experiment: Cytotoxicity, MTT assay. The class given is cell-based, mouse. The note with it: at 128 μg/mL, n = 3. An excerpt: The MTT assay was used to test the cytotoxicity of FNZ to the RAW 264.7 cells.
The subject of data set [10] is S. aureus ATCC 43300. As to the kind of experiment: Thermal stability (MIC after heat treatment). The note with it: MIC vs S. aureus ATCC 43300, triplicate. The class given is physicochemical, Staphylococcus aureus. How it is done:
(§2) The tolerance of FNZ to temperature and pH was evaluated. The stability of FNZ in simulated gastric fluid, artificial intestinal fluid and mouse serum was carried out as previously described. […] All assays were conducted in triplicate.

Data set [11] has as its system S. aureus ATCC 43300. Nature of the data set: pH stability (MIC after pH treatment). The class given is physicochemical, Staphylococcus aureus. Conditions: MIC vs S. aureus ATCC 43300, triplicate. As for the experimental part:
as §2

The test system of data set [12] is S. aureus ATCC 43300. As to the kind of experiment: Salts stability (MIC after incubation with Na+ or Mg2+). It counts as cell-based, Staphylococcus aureus. The note with it: 37 °C, 1 h, MIC vs S. aureus ATCC 43300, triplicate, read-out: MIC after treatment.
The subject of data set [13] is S. aureus ATCC 43300. As to the kind of experiment: Stability in simulated gastric fluid (MIC after treatment). It counts as in vitro ADME, Staphylococcus aureus. Conditions: 1 h, MIC vs S. aureus ATCC 43300, triplicate. As for the experimental part: as §2
Data set [14] relates to S. aureus ATCC 43300. As to the kind of experiment: Stability in mouse serum (MIC after treatment). It counts as in vitro ADME, Staphylococcus aureus. The note with it: mouse serum (25%), 1–4 h. As for the experimental part: as §2

“And” between values parts separate entries of the source, which are not always exact repeats. Equal entries are not always repeated. Where two headings read alike, the source gives them in different places. Bridge positions count the residues as written; N and C are the ends. Ends that are not written are not given here.

Regarding `CC1(C)S[C@@H]2[C@H](NC(=O)[C@H](N)c3ccccc3)C(=O)N2[C@H]1C(=O)O` [Ampicillin, ampicillin], the MIC in the data set on S. aureus ATCC 25923 (Staphylococcus aureus, ATCC25923) is 0.25 µg/mL and 0.62 µM; in the data set on S. aureus CVCC 546 (Staphylococcus aureus, CVCC546), 0.25 µg/mL and 0.62 µM; in the data set with S. aureus E48 (Staphylococcus aureus), 0.25 µg/mL and 0.62 µM; in [1] (Staphylococcus epidermidis, ATCC12228) it was 2 µg/mL and 2.48 µM; in data set [2] (ATCC25922) it was 1 µg/mL and 1.24 µM; in [3] (Staphylococcus aureus, ATCC43300), 2 µg/mL and 2.48 µM. For the same compound, the MIC in the data set with S. aureus ATCC 43300 [4] (checkerboard, 37 °C, 16 h) amounted to 2 µg/mL. For the same compound, the “Combination effect with FNZ (in words)” value in the data set with S. aureus ATCC 43300 [4] (checkerboard) is “synergistic effect”. Moreover, the FIC in the data set on S. aureus ATCC 43300 [4] (combination FNZ + Amp) was found to be 0.063. Also, in the data set with S. aureus ATCC 43300 [5], the “Regrowth (rebound of colonies) up to 24 h” value is listed as “rebound situation was observed”.

As to `NC[C@H]1O[C@H](O[C@H]2[C@H](O)[C@@H](O[C@H]3O[C@H](CO)[C@@H](O)[C@H](N)[C@H]3O)[C@H](N)C[C@@H]2N)[C@H](O)[C@@H](O)[C@@H]1O` [Kan, kanamycin], the “MICa (MIC of drug alone)” value with S. aureus ATCC 43300 [4] (checkerboard, 37 °C, 16 h) was 64 µg/mL. In addition, the “Combination effect with FNZ (in words)” value in the data set with S. aureus ATCC 43300 [4] (checkerboard) is recorded as “synergistic effect”. In addition, the FIC in the data set with S. aureus ATCC 43300 [4] (combination FNZ + Kan) came to 0.008. For the same compound, the “MICc (MIC of drug used in combination)” value with S. aureus ATCC 43300 [4] (combination FNZ + Kan, checkerboard, 37 °C, 16 h) came to 0.5 µg/mL.

Turning to `O=C(O)c1cn(C2CC2)c2cc(N3CCNCC3)c(F)cc2c1=O` [Cip, ciprofloxacin], the MIC in the data set on S. aureus ATCC 43300 [4] (checkerboard, 37 °C, 16 h) came to 0.25 µg/mL. Further, the “MICc (MIC of drug used in combination)” value in the data set on S. aureus ATCC 43300 [4] (combination FNZ + Cip, checkerboard, 37 °C, 16 h) was determined as 0.375 µg/mL.

For the compound “FGFGCNGPWNEDDLRCHNHCKSIKGYKGGYCAKGGFVCKCY (disulfide 5-31, 16-38, 20-40) [FNZ]”, the MIC in the data set on S. aureus ATCC 25923 was 1.75 µM; with S. aureus CVCC 546, 1.75 µM; with S. aureus E48 it was 0.88 µM; in data set [1], 1.75 µM; in data set [2] it was >28.05 µM; in [3] it was 1.75 µM. In addition, the MIC in [6] is reported as >28.05 µM; in [7], >28.05 µM; in the data set with S. aureus ATCC 43300 [12] (50 mM Mg2+), 1.75 µM; in the data set on S. aureus ATCC 43300 [12] (50 mM Na+) it was 1.75 µM; in the data set with S. aureus ATCC 43300 [12] (100 mM Mg2+), 1.75 µM; with S. aureus ATCC 43300 [12] (100 mM Na+), 1.75 µM. The MIC in the data set with S. aureus ATCC 43300 [12] (150 mM Mg2+) is reported as 1.75 µM; with S. aureus ATCC 43300 [12] (150 mM Na+) it was 1.75 µM; in the data set with S. aureus ATCC 43300 [12] (300 mM Mg2+), 3.5 µM; with S. aureus ATCC 43300 [12] (300 mM Na+), 1.75 µM; with S. aureus ATCC 43300 [12] (500 mM Mg2+) it was >7 µM; with S. aureus ATCC 43300 [12] (500 mM Na+), 3.5 µM. For the same compound, the “MICs, G+ bacteria” value in [8] fell in the range of 4 to 8 µg/mL. The “MICs, Gram-negative bacteria” value in [9] was > 128 µg/mL. Besides, the FIC is recorded as 0.016 in the data set on S. aureus ATCC 43300 [4] (combination FNZ + Amp), 0.031 in the data set on S. aureus ATCC 43300 [4] (combination FNZ + Cip), 0.063 in the data set on S. aureus ATCC 43300 [4] (combination FNZ + Kan) and 0.125 with S. aureus ATCC 43300 [4] (combination FNZ + Van). In the data set with RAW264.7 cells, the “Cell viability (survival)” value worked out at 88.56%. The MIC after treatment against S. aureus ATCC 43300 [10] (20 °C for 1 h) came out at 1.75 µM; against S. aureus ATCC 43300 [10] (40 °C for 1 h), 1.75 µM; with S. aureus ATCC 43300 [10] (60 °C for 1 h), 1.75 µM; in the data set on S. aureus ATCC 43300 [10] (80 °C for 1 h), 1.75 µM; in the data set with S. aureus ATCC 43300 [10] (100 °C for 1 h), 3.5 µM; with S. aureus ATCC 43300 [11] (pH 2), 1.75 µM. Also, the MIC after treatment with S. aureus ATCC 43300 [11] (pH 4) was 1.75 µM; with S. aureus ATCC 43300 [11] (pH 6), 1.75 µM; against S. aureus ATCC 43300 [11] (pH 8), 1.75 µM; against S. aureus ATCC 43300 [11] (pH 10), 3.5 µM; in the data set with S. aureus ATCC 43300 [13] it was 8 μg/mL and 1.75 μM; against S. aureus ATCC 43300 [14] (MIC vs S. aureus ATCC 43300, triplicate) it was 8 μg/mL and 1.75 μM. Also, the “Serum stability (in words)” value in the data set on S. aureus ATCC 43300 [14] (MIC read-out) was “Stable^a”.

The values above are taken from PMC10135057, “Molecular Modification of Kex2 P1’ Site Enhances Expression and Druggability of Fungal Defensin” (Antibiotics, 2023).
